According to PubChem BioAssay AID1259407 (Chemical Carcinogenesis Research Information System (CCRIS), 2018):
Active and inactive are the calls of the source. How the calls were made is not given here.

Tested on: CCRIS mutagenicity, Ames/micronucleus/aberration tests
Assay: CCRIS mutagenicity studies
[1] = Test System: AMES SALMONELLA TYPHIMURIUM, Strain/Indicator: TA98, Metabolic Activation: RAT, LIVER, S-9, AROCLOR 1254, Method: STANDARD PLATE
[2] = Test System: AMES SALMONELLA TYPHIMURIUM, Strain/Indicator: TA100, Metabolic Activation: NONE, Method: PREINCUBATION
[3] = Test System: AMES SALMONELLA TYPHIMURIUM, Strain/Indicator: TA100, Metabolic Activation: RAT, LIVER, S-9, AROCLOR 1254, Method: STANDARD PLATE
[4] = Test System: AMES SALMONELLA TYPHIMURIUM, Strain/Indicator: TA1537, Metabolic Activation: RAT, LIVER, S-9, AROCLOR 1254, Method: STANDARD PLATE
[5] = Test System: AMES SALMONELLA TYPHIMURIUM, Strain/Indicator: TA100, Metabolic Activation: NONE, Method: STANDARD PLATE
[6] = Test System: AMES SALMONELLA TYPHIMURIUM, Strain/Indicator: TA98, Metabolic Activation: NONE, Method: STANDARD PLATE
[7] = Test System: AMES SALMONELLA TYPHIMURIUM, Strain/Indicator: TA1535, Metabolic Activation: NONE, Method: STANDARD PLATE
[8] = Test System: AMES SALMONELLA TYPHIMURIUM, Strain/Indicator: TA1537, Metabolic Activation: NONE, Method: STANDARD PLATE

c1ccc2c(c1)ccc1cc3c(ccc4ccccc43)cc12
mutagenic call (Test System: AMES SALMONELLA TYPHIMURIUM, Strain/Indicator: TA98, Metabolic Activation: HAMSTER, LIVER, S-9, AROCLOR 1254 (5 OR 30%), Method: PREINCUBATION): inactive; negative
mutagenic call (Test System: AMES SALMONELLA TYPHIMURIUM, Strain/Indicator: TA98, Metabolic Activation: HAMSTER, LIVER, S-9, AROCLOR 1254 (10%), Method: PREINCUBATION): active; positive
mutagenic call (Test System: AMES SALMONELLA TYPHIMURIUM, Strain/Indicator: TA98, Metabolic Activation: RAT, LIVER, S-9, AROCLOR 1254 (30%), Method: PREINCUBATION): active; positive
mutagenic call [1]: active; positive
mutagenic call (Test System: AMES SALMONELLA TYPHIMURIUM, Strain/Indicator: TA100, Metabolic Activation: HAMSTER, LIVER, S-9, AROCLOR 1254 (5, 10 OR 30%), Method: PREINCUBATION): active; positive
mutagenic call (Test System: AMES SALMONELLA TYPHIMURIUM, Strain/Indicator: TA100, Metabolic Activation: MOUSE, LIVER, S-9, 3-METHYLCHOLANTHRENE, Method: STANDARD PLATE): active; positive
mutagenic call (Test System: AMES SALMONELLA TYPHIMURIUM, Strain/Indicator: TA100, Metabolic Activation: MOUSE, LIVER, S-10, AROCLOR 1254): active; positive
mutagenic call [2]: inactive; negative
mutagenic call (Test System: AMES SALMONELLA TYPHIMURIUM, Strain/Indicator: TA100, Metabolic Activation: RAT, LIVER, S-9, AROCLOR 1254 (30%), Method: PREINCUBATION): active; positive
mutagenic call [3]: active; positive
mutagenic call [4]: active; positive
mutagenic call (Test System: CHINESE HAMSTER V-79, Strain/Indicator: V-79/6-THIOGUANINE, Metabolic Activation: RAT, LIVER, S-9, PHENOBARBITAL, Method: STANDARD PLATE): active; positive
mutagenic call (Test System: CHINESE HAMSTER V-79, Strain/Indicator: V-79/OUABAIN, Metabolic Activation: CELL-MEDIATED, Method: STANDARD PLATE): active; positive

CC(=O)[O-].CC(=O)[O-].CC(=O)[O-].[Cr+3]
mutagenic call (End Point: IN VITRO MICRONUCLEUS, Test System: CHL/IU CELLS, Metabolic Activation: NONE): active; positive
mutagenic call (Test System: UDS RAT HEPATOCYTES, Strain/Indicator: THY INCORP, Metabolic Activation: NONE, Method: AUTORADIOGRAPHY): inactive; negative

CC(C)(Cl)OC(C)(C)Cl
mutagenic call (Test System: AMES SALMONELLA TYPHIMURIUM, Strain/Indicator: TA100, Metabolic Activation: RAT, LIVER, S-9, AROCLOR 1254, Method: DESICCATOR): active; positive

CCCCCOc1ccc(N=O)cc1
mutagenic call [5]: active; positive

COC(=O)CC(=O)OC
mutagenic call (Test System: AMES SALMONELLA TYPHIMURIUM, Strain/Indicator: TA98, Metabolic Activation: NONE, Method: PREINCUBATION): inactive; negative
mutagenic call (Test System: AMES SALMONELLA TYPHIMURIUM, Strain/Indicator: TA98, Metabolic Activation: RAT LIVER S-9, PHENOBARBITAL AND BETA-NAPHTHOFLAVONE, Method: PREINCUBATION): inactive; negative
mutagenic call [2]: inactive; negative
mutagenic call (Test System: AMES SALMONELLA TYPHIMURIUM, Strain/Indicator: TA100, Metabolic Activation: RAT LIVER S-9, PHENOBARBITAL AND BETA-NAPHTHOFLAVONE, Method: PREINCUBATION): inactive; negative
mutagenic call (Test System: AMES SALMONELLA TYPHIMURIUM, Strain/Indicator: TA1535, Metabolic Activation: NONE, Method: PREINCUBATION): inactive; negative
mutagenic call (Test System: AMES SALMONELLA TYPHIMURIUM, Strain/Indicator: TA1535, Metabolic Activation: RAT LIVER S-9, PHENOBARBITAL AND BETA-NAPHTHOFLAVONE, Method: PREINCUBATION): inactive; negative
mutagenic call (Test System: AMES SALMONELLA TYPHIMURIUM, Strain/Indicator: TA1537, Metabolic Activation: NONE, Method: PREINCUBATION): inactive; negative
mutagenic call (Test System: AMES SALMONELLA TYPHIMURIUM, Strain/Indicator: TA1537, Metabolic Activation: RAT LIVER S-9, PHENOBARBITAL AND BETA-NAPHTHOFLAVONE, Method: PREINCUBATION): inactive; negative
mutagenic call (Test System: E.COLI, Strain/Indicator: WP2UVRA/PKM101, Metabolic Activation: NONE, Method: PREINCUBATION): inactive; negative
mutagenic call (Test System: E.COLI, Strain/Indicator: WP2UVRA/PKM101, Metabolic Activation: RAT LIVER S-9, PHENOBARBITAL AND BETA-NAPHTHOFLAVONE, Method: PREINCUBATION): inactive; negative

O=C1CCC(=O)N1O
mutagenic call [6]: inactive; negative
mutagenic call [1]: inactive; negative
mutagenic call [5]: inactive; negative
mutagenic call [3]: inactive; negative
mutagenic call [7]: inactive; negative
mutagenic call (Test System: AMES SALMONELLA TYPHIMURIUM, Strain/Indicator: TA1535, Metabolic Activation: RAT, LIVER, S-9, AROCLOR 1254, Method: STANDARD PLATE): inactive; negative
mutagenic call [8]: inactive; negative
mutagenic call [4]: inactive; negative

NCCc1c[nH]c2ccc(O)cc12 (tested in a mixture with another compound)
mutagenic call (Test System: AMES SALMONELLA TYPHIMURIUM, Strain/Indicator: TA97A, Metabolic Activation: NONE, Method: STANDARD PLATE): inactive; negative
mutagenic call (Test System: AMES SALMONELLA TYPHIMURIUM, Strain/Indicator: TA97A, Metabolic Activation: RAT LIVER S-9, PHENOBARBITOL/BETA-NAPHTHOFLAVONE, Method: STANDARD PLATE): inactive; negative
mutagenic call [6]: inactive; negative
mutagenic call (Test System: AMES SALMONELLA TYPHIMURIUM, Strain/Indicator: TA98, Metabolic Activation: RAT LIVER S-9, PHENOBARBITOL/BETA-NAPHTHOFLAVONE, Method: STANDARD PLATE): inactive; negative
mutagenic call [5]: inactive; negative
mutagenic call (Test System: AMES SALMONELLA TYPHIMURIUM, Strain/Indicator: TA100, Metabolic Activation: RAT LIVER S-9, PHENOBARBITOL/BETA-NAPHTHOFLAVONE, Method: STANDARD PLATE): inactive; negative
mutagenic call [7]: inactive; negative
mutagenic call (Test System: AMES SALMONELLA TYPHIMURIUM, Strain/Indicator: TA1535, Metabolic Activation: RAT LIVER S-9, PHENOBARBITOL/BETA-NAPHTHOFLAVONE, Method: STANDARD PLATE): inactive; negative
mutagenic call [8]: inactive; negative
mutagenic call (Test System: AMES SALMONELLA TYPHIMURIUM, Strain/Indicator: TA1537, Metabolic Activation: RAT LIVER S-9, PHENOBARBITOL/BETA-NAPHTHOFLAVONE, Method: STANDARD PLATE): inactive; negative
mutagenic call (Test System: E.COLI, Strain/Indicator: WP2/UVRA, Metabolic Activation: NONE, Method: STANDARD PLATE): inactive; negative
mutagenic call (Test System: E.COLI, Strain/Indicator: WP2/UVRA, Metabolic Activation: RAT LIVER S-9, PHENOBARBITOL/BETA-NAPHTHOFLAVONE, Method: STANDARD PLATE): inactive; negative

C1CSCCS1
mutagenic call [1]: inactive; negative
mutagenic call (Test System: AMES SALMONELLA TYPHIMURIUM, Strain/Indicator: TA98, Metabolic Activation: S-9, Method: STANDARD PLATE): inactive; negative
mutagenic call [3]: inactive; negative
mutagenic call (Test System: AMES SALMONELLA TYPHIMURIUM, Strain/Indicator: TA100, Metabolic Activation: S-9, Method: STANDARD PLATE): inactive; negative
mutagenic call [7]: inactive; negative
mutagenic call (Test System: AMES SALMONELLA TYPHIMURIUM, Strain/Indicator: TA1535, Metabolic Activation: S-9, Method: STANDARD PLATE): inactive; negative
mutagenic call [8]: inactive; negative
mutagenic call (Test System: AMES SALMONELLA TYPHIMURIUM, Strain/Indicator: TA1537, Metabolic Activation: S-9, Method: STANDARD PLATE): inactive; negative
mutagenic call (Test System: AMES SALMONELLA TYPHIMURIUM, Strain/Indicator: TA1538, Metabolic Activation: NONE, Method: STANDARD PLATE): inactive; negative
mutagenic call (Test System: AMES SALMONELLA TYPHIMURIUM, Strain/Indicator: TA1538, Metabolic Activation: S-9, Method: STANDARD PLATE): inactive; negative

C=CCn1cc2c3c(cccc31)C1C[C@@H](C)CN(C#N)[C@@H]1C2 (stereo partly drawn)
mutagenic call [3]: active; positive
